Test results: ChEMBL document CHEMBL4732064, “Structure-activity relationship studies of phenothiazine derivatives as a new class of ferroptosis inhibitors together with the therapeutic effect in an ischemic stroke model” (Eur J Med Chem, 2021)
Calls of active or inactive are those of the source. No cut-off for these calls is given here.

Columns and labels:
Assay type in all cases: functional, cell-based
HT-1080 [1] = assay: Inhibition of erastin-induced ferroptosis in human HT-1080 cells assessed as cell viability incubated for 48 hrs by MTT assay; settings: HT-1080, 48 h
THP-1 = assay: Protection against nigericin-induced pyroptosis in human THP-1 cells assessed as cell viability at 10 uM
HT-29 = assay: Protection against TNFalpha/Smac-mimetic/Z-VAD-FMK-induced necroptosis in human HT-29 cells assessed as cell viability at 10 uM
HT-1080 [2] = assay: Inhibition of rotenone-induced oxidative cell death in human HT-1080 cells at 10 uM incubated for 24 hrs
HT-1080 [3] = assay: Inhibition of H2O2-induced oxidative cell death in human HT-1080 cells at 10 uM incubated for 24 hrs

SMILES | EC50 (HT-1080 [1]) [nM] | also measured
CC(c1ccc(C#N)cc1)c1ccc2c(c1)Nc1ccccc1S2 (configuration not stated) | 6 | 
CC(NC(=O)CCN1c2ccccc2Sc2ccccc21)C1CC1 (configuration not stated) | 4040 | 
CCCOc1ccc(C(C)c2ccc3c(c2)Nc2ccccc2S3)cc1 (configuration not stated) | 62 | 
CC(=O)c1ccccc1NC(=O)COC(=O)CCN1c2ccccc2Sc2ccccc21 | > 10000 | 
CC(c1ccc(OCc2ccccc2)cc1)c1ccc2c(c1)Nc1ccccc1S2 (configuration not stated) | 14 | 
CCOC(=O)c1cc(F)cc(C(C)c2ccc3c(c2)Nc2ccccc2S3)c1 (configuration not stated) | 30 | 
c1ccc2c(c1)Nc1ccccc1S2 [PHENOTHIAZINE] | 49 | 
CCOc1ccc(C(C)c2ccc3c(c2)Nc2ccccc2S3)cc1 (configuration not stated) | 17 | 
CC(OC(=O)c1ccccc1)c1ccc2c(c1)Nc1ccccc1S2 (configuration not stated) | 13 | 
CC(c1ccccc1)c1ccc2c(c1)Nc1ccccc1S2 (configuration not stated) | 4 | 
CC(C)(O)c1coc(S(=O)(=O)NC(=O)Nc2c3c(cc4c2CCC4)CCC3)c1 |  | Activity (THP-1): Active
CC(c1ccc2c(c1)Nc1ccccc1S2)S(=O)(=O)N1CCOCC1 (configuration not stated) | 67 | 
COc1cccc(N2CCN(S(=O)(=O)C(C)c3ccc4c(c3)Nc3ccccc3S4)CC2)c1 (configuration not stated) | 57 | 
Cc1cc(C(C)c2ccc3c(c2)Nc2ccccc2S3)ccc1OCc1ccccc1 (configuration not stated) | 71 | 
CC(c1ccc2c(c1)Nc1ccccc1S2)S(=O)(=O)N1CCN(c2ccc(F)cc2)CC1 (configuration not stated) | 80 | 
CC(c1ccc2c(c1)Nc1ccccc1S2)S(=O)(=O)N1CCSCC1 (configuration not stated) | 78 | 
CC(C)Oc1ccc(C(C)c2ccc3c(c2)Nc2ccccc2S3)cc1 (configuration not stated) | 17 | 
COc1ccccc1C(=O)N1c2ccccc2Sc2ccccc21 | > 10000 | 
O=Cc1ccc2c(c1)Nc1ccccc1S2 | 142 | 
CC(=O)c1cccc(NC(=O)CCN2c3ccccc3Sc3ccccc32)c1 | 4300 | 
C/C(=N\NC(=O)c1ccccc1C)c1ccc2c(c1)Nc1ccccc1S2 | 5 | 
COc1ccc(C(C)c2ccc3c(c2)Nc2ccccc2S3)cc1C (configuration not stated) | 19 | 
CC1CCN(CC(=O)N2c3ccccc3Sc3ccccc32)CC1 | 2760 | 
COc1cc(C(C)c2ccc3c(c2)Nc2ccccc2S3)ccc1Cl (configuration not stated) | 22 | 
COc1ccc2c(c1)Nc1ccccc1S2 | 1750 | 

SMILES | EC50 (HT-1080 [1]) [nM] | also measured
Cc1cnc(SCC(=O)N2c3ccccc3Sc3ccccc32)nc1 | > 10000 | 
CC(c1cccc(C#N)c1)c1ccc2c(c1)Nc1ccccc1S2 (configuration not stated) | 15 | 
CC(c1ccc(NC(=O)OC(C)(C)C)cc1)c1ccc2c(c1)Nc1ccccc1S2 (configuration not stated) | 39 | 
CC(=O)N1c2ccccc2Sc2ccccc21 | 1150 | 
Cc1ccc(SCC(=O)N2c3ccccc3Sc3ccccc32)cc1 | > 10000 | 
CS(=O)(=O)c1ccc2c(c1)Nc1ccccc1S2 | 195 | 
O=C(c1ccncc1)N1c2ccccc2Sc2ccccc21 | 4470 | 
CC(c1cccc(O)c1)c1ccc2c(c1)Nc1ccccc1S2 (configuration not stated) | 5 | 
Cc1ccc(C)c(NC(=O)CN(C)C(=O)CCN2c3ccccc3Sc3ccccc32)c1 | 5240 | 
CC(C)c1ccc(C(C)c2ccc3c(c2)Nc2ccccc2S3)cc1 (configuration not stated) | 6 | 
COC(=O)c1ccc(C(C)c2ccc3c(c2)Nc2ccccc2S3)cc1Cl (configuration not stated) | 21 | 
C/C(=N\NS(=O)(=O)c1ccc(C)cc1)c1ccc2c(c1)Nc1ccccc1S2 | 28 | 
CC(C)Cc1ccc(C(C)c2ccc3c(c2)Nc2ccccc2S3)cc1 (configuration not stated) | 9 | 
CC(c1ccc(Cl)cc1)c1ccc2c(c1)Nc1ccccc1S2 (configuration not stated) | 16 | 
O=C(CN1CCCC1)N1c2ccccc2Sc2ccccc21 | 1130 | 
CC(c1cccc(OCc2ccccc2)c1)c1ccc2c(c1)Nc1ccccc1S2 (configuration not stated) | 25 | 
OCc1ccc2c(c1)Nc1ccccc1S2 | 63 | 
Cc1cc(C)cc(C(C)c2ccc3c(c2)Nc2ccccc2S3)c1 (configuration not stated) | 21 | 
CCOc1ccccc1C(=O)N/N=C(\C)c1ccc2c(c1)Nc1ccccc1S2 | 18 | 
CC(c1ccc(C(F)(F)F)cc1)c1ccc2c(c1)Nc1ccccc1S2 (configuration not stated) | 6 | 
CCN(CC)CC(O)CN1c2ccccc2Sc2ccccc21 (configuration not stated) | 4420 | 
CC(c1cccc(N2CCOCC2)c1)c1ccc2c(c1)Nc1ccccc1S2 (configuration not stated) | 14 | 
CCCCC(CC)CN1c2ccccc2Sc2ccccc21 (configuration not stated) | > 10000 | 
COc1ccc(C(C)c2ccc3c(c2)Nc2ccccc2S3)cc1OC (configuration not stated) | 7 | 
CC(c1ccc2c(c1)Nc1ccccc1S2)S(=O)(=O)N1CCN(c2ccc(F)cc2F)CC1 (configuration not stated) | 80 | 

SMILES | EC50 (HT-1080 [1]) [nM] | also measured
CCCCc1ccc(C(C)c2ccc3c(c2)Nc2ccccc2S3)cc1 (configuration not stated) | 64 | 
CC(c1ccc2c(c1)Nc1ccccc1S2)S(=O)(=O)N1CCN(S(C)(=O)=O)CC1 (configuration not stated) | 35 | 
Cc1cccc(C(C)c2ccc3c(c2)Nc2ccccc2S3)c1 (configuration not stated) | 5 | 
CC(c1cc(F)cc(OCc2ccccc2)c1)c1ccc2c(c1)Nc1ccccc1S2 (configuration not stated) | 60 | 
CN1c2ccccc2Sc2ccccc21 | > 10000 | 
CC(=O)c1ccc2c(c1)Nc1ccccc1S2 | 38 | 
COc1cc(C(C)c2ccc3c(c2)Nc2ccccc2S3)ccc1C (configuration not stated) | 22 | 
CC(c1cc(Cl)cc(Cl)c1)c1ccc2c(c1)Nc1ccccc1S2 (configuration not stated) | 17 | 
CSc1ccc2c(c1)Nc1ccccc1S2 | 64 | 
Cc1cc(Cl)cc(C(C)c2ccc3c(c2)Nc2ccccc2S3)c1 (configuration not stated) | 24 | 
CC(OC(=O)CCN1c2ccccc2Sc2ccccc21)c1ccc(F)cc1 (configuration not stated) | > 10000 | 
CC(C)c1cccc(C(C)c2ccc3c(c2)Nc2ccccc2S3)c1 (configuration not stated) | 12 | 
CC(c1cccc(C(=O)OC(C)(C)C)c1)c1ccc2c(c1)Nc1ccccc1S2 (configuration not stated) | 17 | 
CC(c1ccc(Cl)c(Cl)c1)c1ccc2c(c1)Nc1ccccc1S2 (configuration not stated) | 16 | 
CC(OC(=O)CCCN1C(=O)c2ccccc2C1=O)C(=O)N1c2ccccc2Sc2ccccc21 (configuration not stated) | 439 | 
FC(F)(F)c1ccc2c(c1)Nc1ccccc1S2 | 47 | 
CC(c1ccc2c(c1)Nc1ccccc1S2)c1ccc(F)c(OCc2ccccc2)c1 (configuration not stated) | 35 | 
CC(c1ccc(Cl)c(F)c1)c1ccc2c(c1)Nc1ccccc1S2 (configuration not stated) | 19 | 
COc1ccc(OCC(=O)N2c3ccccc3Sc3ccccc32)cc1 | 145 | 
CC(=NNC(=O)c1ccco1)c1ccc2c(c1)Nc1ccccc1S2 | 17 | 
O=C(CCN1c2ccccc2Sc2ccccc21)N1CCN(CCO)CC1 | > 10000 | 
CC(C)Oc1cccc(C(C)c2ccc3c(c2)Nc2ccccc2S3)c1 (configuration not stated) | 15 | 
COc1cc(C(C)c2ccc3c(c2)Nc2ccccc2S3)ccc1F (configuration not stated) | 25 | 
COCCNC(=O)N1c2ccccc2Sc2ccccc21 | > 10000 | 
CCOc1cccc(C(C)c2ccc3c(c2)Nc2ccccc2S3)c1 (configuration not stated) | 14 | 

SMILES | EC50 (HT-1080 [1]) [nM] | also measured
CN1C(=O)C(Cc2c[nH]c3ccccc23)NC1=S (configuration not stated) |  | Activity (HT-29): Active
CCOC(=O)c1ccc(NC2CCCCC2)c(N)c1 | 88 | Activity (HT-29): inactive; inhibition (HT-1080 [2]): inactive; Activity (HT-1080 [3]): inactive
CC(c1ccc2c(c1)Nc1ccccc1S2)S(=O)(=O)N1CCN(C)CC1 (configuration not stated) | 34 | 
C/C(=N\NC(=O)c1ccccn1)c1ccc2c(c1)Nc1ccccc1S2 | 65 | 
CC(c1ccc(C(F)(F)F)c(Cl)c1)c1ccc2c(c1)Nc1ccccc1S2 (configuration not stated) | 17 | 
CCc1ccc2c(c1)Nc1ccccc1S2 | 30 | 
N#Cc1ccc2c(c1)Nc1ccccc1S2 | 209 | 
CC(CN1c2ccccc2Sc2ccccc21)N(C)C (configuration not stated) [PROMETHAZINE] | 264 | 
CC(c1ccc(F)cc1)c1ccc2c(c1)Nc1ccccc1S2 (configuration not stated) | 6 | 
CC(c1cccc(NC(=O)OC(C)(C)C)c1)c1ccc2c(c1)Nc1ccccc1S2 (configuration not stated) | 52 | 
CC(C)N1CCN(S(=O)(=O)C(C)c2ccc3c(c2)Nc2ccccc2S3)CC1 (configuration not stated) | 25 | 
CC(c1ccc(C(C)(C)C)cc1)c1ccc2c(c1)Nc1ccccc1S2 (configuration not stated) | 73 | 
CC(c1ccc(F)c(Cl)c1)c1ccc2c(c1)Nc1ccccc1S2 (configuration not stated) | 5 | 
CC(c1ccc(N2CCOCC2)cc1)c1ccc2c(c1)Nc1ccccc1S2 (configuration not stated) | 13 | 
CC(c1cccc(N2CCN(C)CC2)c1)c1ccc2c(c1)Nc1ccccc1S2 (configuration not stated) | 9 | 
COc1cc(OC)cc(C(C)c2ccc3c(c2)Nc2ccccc2S3)c1 (configuration not stated) | 13 | 
CCc1ccc(C(C)c2ccc3c(c2)Nc2ccccc2S3)cc1 (configuration not stated) | 20 | 
CC(c1cccc(Cl)c1)c1ccc2c(c1)Nc1ccccc1S2 (configuration not stated) | 5 | 
C/C(=N\NC(=O)c1cccnc1)c1ccc2c(c1)Nc1ccccc1S2 | 71 | 
c1ccc(Cc2ccc3c(c2)Nc2ccccc2S3)cc1 | 17 | 
CCN1CCN(S(=O)(=O)C(C)c2ccc3c(c2)Nc2ccccc2S3)CC1 (configuration not stated) | 32 | 
CCCN1c2ccccc2Sc2ccccc21 | > 10000 | 
CC(c1cccc(F)c1)c1ccc2c(c1)Nc1ccccc1S2 (configuration not stated) | 6 | 
CCc1cccc(C(C)c2ccc3c(c2)Nc2ccccc2S3)c1 (configuration not stated) | 18 | 
